# System: IgE antibody present in the serum of a wheat-allergic patient
# Experiment: Wheat epitope mapping (1): peptide array of overlapping 15-amino-acid peptides, chemiluminescence
# Type: binding, human
# Settings: bound = chemiluminescence value minus N2nd value of 5 non-wheat-allergic subjects at least 35,000; serum of 49 patients
# Description: Epitope mapping was carried out using a library of overlapping peptides (length: 15 amino acids) corresponding to the amino acid sequences identified as allergy components of wheat. Specifically, the library of overlapping peptides was prepared on the basis of the amino acid sequences of SEQ ID NOs: 2, 4, 6, 8, 10, 12, 14, 16, 18, 20, 22, 24, 26 and 28.
# The peptides to be synthesized were shifted by 10 amino acids.
# For preparation of peptide arrays, the Intavis CelluSpots™ technique was used. Specifically, the peptide arrays were prepared by the following procedure: (1) synthesizing peptides of interest on amino-modified cellulose disks using an automated chemical synthesis apparatus (Intavis MultiPep RS), (2) dissolving the amino-modified cellulose disks to obtain a cellulose-bound peptide solution, and (3) spotting the cellulose-bound peptides onto coated glass slides. The details of each procedure are as described below.
# Peptide synthesis was carried out in incremental steps through 9-fluorenylmethoxycarbonyl (Fmoc) chemical reaction on amino-modified cellulose disks in 384-well synthesis plates. Specifically, amino acids in which a Fmoc group is bonded to an amino group were activated in a solution of N,N′-diisopropylcarbodiimide (DIC) and 1-hydroxybenzotriazole (HOBt) in dimethylformamide (DMF) and added dropwise to the cellulose disks so that the Fmoc group-bound amino acids were bound to the amino groups on the cellulose disks (coupling). Unreacted amino groups were capped with acetic anhydride and washed with DMF. Furthermore, the Fmoc groups were eliminated from the amino groups of the amino acids bound to the amino groups on the cellulose disks by treatment with piperidine and washing with DMF. The amino acids bound to the amino groups on the cellulose disks were repetitively subjected to the coupling, the capping, and the Fmoc group elimination described above to elongate the amino terminus for peptide synthesis.
# The peptides-bound cellulose disks of interest obtained above in the subsection titled “(1) Synthesis of peptide” were transferred to 96-well plates and treated with a side chain deprotection mixed solution of trifluoroacetic acid (TFA), dichloromethane, triisopropylsilane (TIPS), and water for deprotection of amino acid side chains. Then, the deprotected cellulose-bound peptides were dissolved in a mixed solution of TFA, […] acid (TFMSA), TIPS, and water and precipitated in […] methyl ether (TBME), and the precipitate was resuspended in dimethyl sulfoxide (DMSO) and mixed with a mixed solution of NaCl, sodium citrate, and water to obtain a peptide solution for slide spotting.
# The peptide solution for slide spotting obtained above in the subsection titled “(2) Dissolution of amino-modified cellulose disk” was spotted onto Intavis CelluSpots™ slides using Intavis Slide Spotting Robot, and the slides were dried to prepare peptide arrays.
# The presence or absence of binding, to each peptide fragment, of an IgE antibody present in the serum of a wheat-allergic patient was measured through antigen-antibody reaction using the peptide arrays. […]
row,Substance,binding of patient-specific IgE antibodies to 15-residue peptide
1,SEQ ID NO: 1403: common 15-residue epitope sequence of polypeptide (E22) (QYLQPQQPISQQQAQ; REGION 1..15: note = epitope),confirmed to bind
2,SEQ ID NO: 1508: common 15-residue epitope sequence of polypeptide (E23) (QVPLVQQQQFLGQQQ; REGION 1..15: note = epitope),confirmed to bind
3,SEQ ID NO: 1566: common 15-residue epitope sequence of polypeptide (E24) (PQQPQQPFPQTQQPQ; REGION 1..15: note = epitope),confirmed to bind
4,SEQ ID NO: 1598: common 15-residue epitope sequence of polypeptide (E25) (PQQPAQLEAIRSLVL; REGION 1..15: note = epitope),confirmed to bind
5,SEQ ID NO: 1608: common 15-residue epitope sequence of polypeptide (E26) (VGYNPDKVPFVPISG; REGION 1..15: note = epitope),confirmed to bind
6,SEQ ID NO: 1685: common 15-residue epitope sequence of polypeptide (E27) (PAKEAANFTSQVIIM; REGION 1..15: note = epitope),confirmed to bind
7,SEQ ID NO: 1753: common 15-residue epitope sequence of polypeptide (E28) (VKEVSSYLKKVGYNP; REGION 1..15: note = epitope),confirmed to bind
8,SEQ ID NO: 1789: common 15-residue epitope sequence of polypeptide (E29) (SGKELEALPKFLKNG; REGION 1..15: note = epitope),confirmed to bind
9,SEQ ID NO: 1836: common 15-residue epitope sequence of polypeptide (E30) (VIAEYTVRTLQRTVP; REGION 1..15: note = epitope),confirmed to bind
10,SEQ ID NO: 1895: common 15-residue epitope sequence of polypeptide (E31) (QVPLVQQQQFPGQQQ; REGION 1..15: note = epitope),confirmed to bind
11,SEQ ID NO: 1977: common 15-residue epitope sequence of polypeptide (E32) (DPTGAKVTKAAIKKK; REGION 1..15: note = epitope),confirmed to bind
12,SEQ ID NO: 2004: common 15-residue epitope sequence of polypeptide (E33) (STGTIGKRFASINVE; REGION 1..15: note = epitope),confirmed to bind
13,SEQ ID NO: 2027: common 15-residue epitope sequence of polypeptide (E34) (TPGALQYLSGVILFE; REGION 1..15: note = epitope),confirmed to bind
14,SEQ ID NO: 2068: common 15-residue epitope sequence of polypeptide (E35) (PPYCTIAPFGIFGTN; REGION 1..15: note = epitope),confirmed to bind
15,SEQ ID NO: 2154: common 15-residue epitope sequence of polypeptide (E36) (YSQPQQPISQQQQQQ; REGION 1..15: note = epitope),confirmed to bind
16,SEQ ID NO: 2217: common 15-residue epitope sequence of polypeptide (E37) (VSRLLRGIRNYRVAI; REGION 1..15: note = epitope),confirmed to bind
17,SEQ ID NO: 2265: common 15-residue epitope sequence of polypeptide (E38) (LGGIDKRVIERFEKE; REGION 1..15: note = epitope),confirmed to bind
18,SEQ ID NO: 2309: common 15-residue epitope sequence of polypeptide (E39) (QSRYDAIRAIIYSIV; REGION 1..15: note = epitope),confirmed to bind
19,SEQ ID NO: 2342: common 15-residue epitope sequence of polypeptide (E40) (HDIDRCAYVTEIVLA; REGION 1..15: note = epitope),confirmed to bind
20,SEQ ID NO: 2419: common 15-residue epitope sequence of polypeptide (E41) (QSTLKAWSGKTENEE; REGION 1..15: note = epitope),confirmed to bind
21,SEQ ID NO: 2491: common 15-residue epitope sequence of polypeptide (E42) (SSQVSFQPSQLNPQA; REGION 1..15: note = epitope),confirmed to bind
22,SEQ ID NO: 2545: common 15-residue epitope sequence of polypeptide (E43) (LQQSTYQLVQQLCCQ; REGION 1..15: note = epitope),confirmed to bind
23,SEQ ID NO: 2613: common 15-residue epitope sequence of polypeptide (E44) (SAKPLLASLSKRVLT; REGION 1..15: note = epitope),confirmed to bind
24,SEQ ID NO: 2631: common 15-residue epitope sequence of polypeptide (E45) (RFEKEAAEMNKRSFK; REGION 1..15: note = epitope),confirmed to bind
25,SEQ ID NO: 2674: common 15-residue epitope sequence of polypeptide (E46) (YKGPTLLEALDQINE; REGION 1..15: note = epitope),confirmed to bind
26,SEQ ID NO: 2701: common 15-residue epitope sequence of polypeptide (E47) (VYKIGGIGTVPVGRV; REGION 1..15: note = epitope),confirmed to bind
27,SEQ ID NO: 2774: common 15-residue epitope sequence of polypeptide (E48) (FLKNGDAGIVKMIPT; REGION 1..15: note = epitope),confirmed to bind
28,SEQ ID NO: 2809: common 15-residue epitope sequence of polypeptide (E49) (VYSANTHRSKWFRVV; REGION 1..15: note = epitope),confirmed to bind
29,SEQ ID NO: 2830: common 15-residue epitope sequence of polypeptide (E50) (YIVVEGRDGYFEMAC; REGION 1..15: note = epitope),confirmed to bind

# — patent US20240393292A1, “ALLERGY ANTIGEN AND EPITOPE THEREOF” (HOYU CO., LTD., priority 2019, published 2024)
